Assay results as given in patent US20180179166A1, “SMALL MOLECULE INHIBITORS OF GP120-MEDIATED HIV INFECTION AND METHODS OF USE” (ViroCarb Inc., priority 2014, published 2018).
Read-outs that look alike come from different tables or passages of the source.

Key:
[1] = system: HIV-1IIIB virus (X4 tropism); assay: Protocol 1: inhibition of HIV-1 in Jurkat T-cells, p24gag ELISA; assay type: cell-based; conditions: read-out: percent inhibitory activity
Experimental: HIV-1IIIB virus (X4 tropism) was pretreated with a control solution of DMSO or a given compound dissolved in DMSO to a final concentration of 100 μM for 1 hr at 37° C. Pretreated HIV-1 virus was then added (100 μl of 0.1 MOI) to 0.5×10^6 Jurkat (JKT C) T-cells in 100 μl RPMI media and incubated at 37° C. for an additional 1 hr with occasional mixing.
After 1 hour, the cells were centrifuged at 1000 rpm for 5 minutes and the cell pellet washed wash thrice with 2 ml Ca^2+ Mg^2+ free PBS. After the last wash, the cells were resuspended in medium and transferred to 12-well tissue culture plates and placed at 37° C.
On days 2 and 5 of culture, 0.5 ml aliquots of culture supernatant is collected and replaced with 0.5 ml of fresh medium. Aliquots are stored at −80° C. until ready for p24gag ELISA. ELISA for p24gag was done using ELISA plates from Zeptometrix using a standard protocol.

[2] = system: HIV-1 BaL virus (R5 tropism); assay: Protocol 2: inhibition of HIV-1 in PBMC, virus pre-treated with compound, p24gag ELISA; assay type: cell-based; conditions: Human immunodeficiency virus 1, 144 h, 100 μM compound, HIV-1 BaL (R5), day 6, read-out: percent inhibitory activity
Experimental: The protocol involves PBMCs which were purified by centrifugation at 500 g using Ficoll-Paque™ reagent. The cells were re-suspended in RPMI (10% FBS, 2 ug/ml PHA, 20 U/ml of IL-2) and incubated at 37° C. in 5% CO2 for 3 days.
HIV-1 BaL virus (R5 tropism) was pre-treated with a control solution of DMSO or a given compound dissolved in DMSO to a final concentration of 20-100 μM for 1 hour at 37° C. Pretreated HIV-1 viruses were then added (100 μl of 0.1 MOI) to 5×10^5 PBMCs in 100 μl RPMI media and then incubated at 37° C. for an additional 1 hour with occasional mixing. After 1 hour, the cells were centrifuged at 1000 rpm for 5 minutes and the cell pellet washed wash thrice with 2 ml Ca^2+ Mg^2+ free PBS.
After the last wash, the cells are re-suspended in medium and transferred to 12-well tissue culture plates and place at 37° C.
On day 6 of culture, 0.5 ml aliquots of culture supernatant were collected. Aliquots were stored at −80° C. until ready for p24gag ELISA. ELISA for p24gag was done using ELISA plates from Zeptometrix using a standard protocol.

[3] = system: HIV-BaL virus (R5 tropism); assay: Protocol 4: inhibition of HIV-1 in U87.CD4.CCR5 cells, p24gag ELISA; assay type: cell-based; conditions: Human immunodeficiency virus 1, 96 h, day 4 post-infection, read-out: percent inhibitory activity; for inhibition at 20 µM: 20 μM compound
Experimental: U87.CD4.CCR5 cell lines (5×10^4/well) were seeded in 24 well plates overnight. HIV-BaL virus (R5 tropism) was pretreated with a control solution of DMSO or a given compound dissolved in DMSO to a final concentration of 20-200 μM for 1 hr at 37° C.
Pretreated HIV-1 virus was then added (100 μl of 0.1 MOI) to pre-plated U87.CD4.CCR5 cells in 200 μl DMEM media and then incubated at 37° C. for an additional 1 hour with occasional mixing.
After 1 hour, the cells in each well were washed with 1 ml Ca^2+ Mg^2+ free PBS three times. After the last wash, 1 ml of DMEM was added to each well. On day 4 post-infection, 0.2 ml aliquots of culture supernatant was collected. Aliquots were stored at −80° C. until ready for p24gag ELISA. ELISA for p24gag was done using ELISA plates from Zeptometrix using a standard protocol.

[4] = system: HIV-1IIIB virus (X4 tropism); assay: Protocol 1: inhibition of HIV-1 in Jurkat T-cells, p24gag ELISA; assay type: cell-based; conditions: Human immunodeficiency virus 1, 20 μM compound, HIV-1IIIB (X4), read-out: percent inhibitory activity
JR-FL-R5 virus = assay: Example 6: U87.CD4.CCR5 cells infected with replication-deficient luciferase HIV strain; assay type: cell-based; conditions: Human immunodeficiency virus 1, U87/CD4/CCR5, 48 h, read-out: % HIV inhibitory activity
Experimental: Methods. U87.CD4.CCR5 cells (2.5×10^4/well) were seeded overnight and then infected with a replication-deficient HIV strain containing a luciferase insertion in the nef gene (JR-FL-R5 virus). JR-FL-R5 virus was pre-incubated with each compound for 1 hour prior to infection. After two days, the cells were washed, lysed and measured for luciferase activity, which is indicative of viral integration and/or transcription. Compounds were tested in quadruplicates.

HIV BaL = assay: Example 5: HIV inhibition in human PBMC infected first, then treated with compound; assay type: cell-based, HIV-1; conditions: read-out: % HIV inhibitory activity
Experimental: In this Example, Compounds #32 and #38 were tested using human peripheral blood mononuclear cells (PBMC). The protocol used is the same as that of Example 2—Protocol 2, delineated in detail, above.
Methods. Briefly, 5×10^5 activated PBMCs were used per well in a 12-well tissue culture plate. The PBMCs were infected with HIV BaL for 1 hour and washed 2× with RPMI medium. The PBMCs were then mixed with compound #32 or #38 at concentrations of 6.0 μM, 25 μM or 100 μM, with solutions containing 20U/m1 of IL-2.
At day 3-post infection, 500 μl of fresh medium containing appropriate concentration of compounds were added. The supernatants were harvested at day 8. The level of HIV infection was determined as described in protocol 2.

[5] = system: HIV-1 IIIb virus (X4 tropism); assay: Protocol 3: inhibition of HIV-1 in TZM-bl reporter cells, luciferase, X4 virus; assay type: cell-based; conditions: Human immunodeficiency virus 1, IIIB, read-out: percent inhibitory activity against X4; for inhibition at 200 µM: 200 μM compound
Experimental: (§1) HIV-BaL virus (R5 tropism) and HIV-1 IIIb virus (X4 tropism) were pretreated with a given compound dissolved in DMSO to a final concentration of 100-200 μM for 1 hr at 37° C. in 96 well tissue culture plates. The TZM-bl HIV reporter cell line (1×10^4/well) in 100 ul DMEM is then added to each well and the 96 well tissue culture plates are incubated at 37° C. in 5% CO2 incubator.
(§2) TZM-bl cells were obtained from the NIH AIDS Reagent Program (Germantown Md., USA). TZM-bl, previously designated JC53-bl (clone 13) is a HeLa cell line. The parental cell line (JC.53) stably expresses large amounts of CD4 and CCR5. The TZM-bl cell line was generated from JC.53 cells by introducing separate integrated copies of the luciferase and ß-galactosidase genes under control of the HIV-1 promoter. The TZM-bl cell line is highly sensitive to infection with diverse isolates of HIV-1. The TZM-bl indicator cell line enables simple and quantitative analysis of HIV using either ß-gal or luciferase as a reporter. It is maximally sensitive to HIV infection by including DEAE-dextran in the infection medium. […] Further information about TZM-bl cells can be found in U.S. Pat. No. 6,797,462, issued to Tranzyme Pharma.
(§3) After 48 hours, half of the medium was removed and replaced with commercially available reagents that contain lysing buffer and substrate for luciferase. After 2 minutes of lysis and incubation, the luciferase activity of the TZM-bl cell is read using a commercial luminometer. The readout is translated as relative light units (RLU).

[6] = system: HIV-BaL virus (R5 tropism); assay: Protocol 3: inhibition of HIV-1 in TZM-bl reporter cells, luciferase, R5 virus; assay type: cell-based; conditions: Human immunodeficiency virus 1, BAL, read-out: percent inhibitory activity against R5; for inhibition at 200 µM: 200 μM compound
Experimental: as §1, §2, §3

[7] = Human immunodeficiency virus 1, 100 μM compound, HIV-1IIIB (X4), Jurkat T-cells
[8] = Human immunodeficiency virus 1, Jurkat
[9] = Human immunodeficiency virus 1, BAL, PBMC, 192 h
[10] = 100 μM compound, TZM-bl cells, 48 hours

CCOC(=O)c1cnc(SCC(=O)Nc2cccc(C(=O)O)c2)nc1N [#1]
inhibition at 100 µM [1, 7]: 3%

Nc1cc(=O)[nH]c(SCC(=O)Nc2ccc(C(=O)O)cc2)n1 [#2]
inhibition at 100 µM [1, 7]: 88% | inhibition at 100 µM [2]: 30%

O=C(CSc1nnc(O)nc1O)N/N=C/c1ccc(C(=O)O)cc1 [#3]
inhibition at 100 µM [1, 7]: 71% | inhibition at 100 µM [2]: 34%

Nc1cc(=O)[nH]c(SCC(=O)Nc2ccc3c(c2)OCO3)n1 [#21]
inhibition at 100 µM [2]: 40%

Nc1cc(=O)[nH]c(SCC(=O)Nc2ccc(F)c(Cl)c2)n1 [#25]
inhibition at 100 µM [1, 8]: 18%

Nc1cc(=O)[nH]c(SCC(=O)Nc2ccc([N+](=O)[O-])cc2)n1 [#27]
inhibition at 100 µM [1, 8]: 20%

Nc1cc(=O)[nH]c(SCC(=O)Nc2ccc(C(=O)O)cn2)n1 [#28]
inhibition at 20 µM [3]: 27%

CCOC(=O)c1ccc(NC(=O)CSc2nc(N)cc(=O)[nH]2)nc1 [#29]
inhibition at 20 µM [4]: 75% | inhibition at 20 µM [3]: 24%

Nc1cc(=O)[nH]c(SCC(=O)Nc2cnc(C(=O)O)cn2)n1 [#30]
inhibition at 20 µM [3]: 19%

COC(=O)c1cnc(NC(=O)CSc2nc(N)cc(=O)[nH]2)cn1 [#31]
inhibition at 20 µM [3]: 21%

Nc1cc(=O)[nH]c(SCC(=O)Nc2ccc(CC(=O)O)cc2)n1 [#32]
inhibition at 2 µM (JR-FL-R5 virus): 32% | inhibition at 6 µM (HIV BaL; Human immunodeficiency virus 1, 192 h, 6.0 μM compound, human PBMC, HIV BaL, day 8): 54% | inhibition at 25 µM (HIV BaL; Human immunodeficiency virus 1, 192 h, 25 μM compound, human PBMC, HIV BaL, day 8): 65% | inhibition at 100 µM (HIV BaL; Human immunodeficiency virus 1, 192 h, 100 μM compound, human PBMC, HIV BaL, day 8): 82% | inhibition at 20 µM [4]: 80% | inhibition at 200 µM ([5]; TZM-bl cells, 48 hours): 61% | inhibition at 200 µM ([6]; TZM-bl cells, 48 hours): 94%

CCOC(=O)Cc1ccc(NC(=O)CSc2nc(N)cc(=O)[nH]2)cc1 [#33]
inhibition at 20 µM [3]: 27%

Nc1cc(=O)[nH]c(SCCC(=O)Nc2ccc(C(=O)O)cc2)n1 [#34]
inhibition at 200 µM ([5]; TZM-bl cells, 48 hours): 62% | inhibition at 20 µM [3]: 33% | inhibition at 200 µM ([6]; TZM-bl cells, 48 hours): 61%

COC(=O)c1ccc(NC(=O)CCSc2nc(N)cc(=O)[nH]2)cc1 [#35]
inhibition at 20 µM [3]: 27%

Nc1cc(=O)[nH]c(SCCC(=O)NCc2ccc(C(=O)O)cc2)n1 [#36]
inhibition at 20 µM [4]: 50% | inhibition at 20 µM [3]: 7%

O=C(CSc1nnc(O)nc1O)N/N=C/c1ccccn1 [#37]
inhibition at 100 µM [1, 7]: 45% | inhibition at 200 µM ([3]; 200 μM compound): 28%

O=C(CSc1nnc(O)nc1O)N/N=C/C=C/c1ccccc1 [#38]
inhibition at 2 µM (JR-FL-R5 virus): 30% | inhibition at 100 µM [1, 8]: 44% | inhibition at 6 µM (HIV BaL; [9]): 70% | inhibition at 25 µM (HIV BaL; [9]): 90% | inhibition at 100 µM (HIV BaL; [9]): 100% | inhibition at 100 µM ([5]; TZM-bl, 48 h): 69% | inhibition at 100 µM ([6]; TZM-bl, 48 h): 73%

O=C(CSc1nnc(O)nc1O)N/N=C/c1ccc(Br)cc1 [#39]
inhibition at 100 µM [1, 7]: 32% | inhibition at 100 µM [5, 10]: 15% | inhibition at 100 µM [6, 10]: 15%

O=C(CSc1nnc(O)nc1O)N/N=C/c1cccnc1 [#40]
inhibition at 100 µM [5, 10]: 57% | inhibition at 100 µM [6, 10]: 71%

O=C(CSc1nnc(O)nc1O)N/N=C/c1ccc(O)c([N+](=O)[O-])c1 [#41]
inhibition at 100 µM [5, 10]: 10% | inhibition at 100 µM [6, 10]: 14%

O=C(CSc1nnc(O)nc1O)N/N=C/c1ccc(C(=O)O)cn1 [#42]
inhibition at 100 µM [5, 10]: 25% | inhibition at 100 µM [6, 10]: 25%

CCOC(=O)c1ccc(/C=N/NC(=O)CSc2nnc(O)nc2O)nc1 [#43]
inhibition at 100 µM [5, 10]: 16% | inhibition at 100 µM [6, 10]: 12%

O=C(CSc1nnc(O)nc1O)N/N=C/c1ccc(-c2nn[nH]n2)cn1 [#44]
inhibition at 20 µM [3]: 10%

O=C(CSc1nnc(O)nc1O)N/N=C/c1ccc(-c2nccs2)cn1 [#47]
inhibition at 100 µM [5, 10]: 29% | inhibition at 100 µM [6, 10]: 27%

O=C(Cc1nnc(O)nc1O)N/N=C/C=C/c1ccccc1 [#48]
inhibition at 0.05 µM (JR-FL-R5 virus): 28%

O=C(CC1CCS(=O)(=O)C1)N/N=C/C=C/c1ccccc1 (centres unmarked) [#49]
inhibition at 0.05 µM (JR-FL-R5 virus): 45%

O=C(Cn1c(-c2ccccn2)nc2ccccc21)N/N=C/C=C/c1ccccc1 [#51]
inhibition at 0.05 µM (JR-FL-R5 virus): 22%
